Experimental data published in publication PMC3843727, “Isolation and Functional Characterization of Calcitonin-Like Diuretic Hormone Receptors in Rhodnius prolixus” (PLoS ONE, 2013).
Ends that are not written are not given here.

Key:
Malpighian tubules = conditions: reference stimulant; cited from earlier work
Rhopr-CT/DH-R1-C = experiment: Bioluminescence (calcium mobilization) assay, HEK293/CNG cells expressing Rhopr-CT/DH-R1-C; format: cell-based, R. prolixus; conditions: luminescence
Excerpt: (§1) The largest cDNA fragments encoding Rhopr-CT/DH-R1 transcript variants and Rhopr-CT/DH-R2-B were amplified as described earlier (see section: Isolation of cDNA sequences encoding R. prolixus CT/DH receptors). The PCR products from these reactions were used as a template to amplify the ORF and introduce a Kozak translation initiation sequence at the 5´ end using the primers listed in Table S5 in File S1. The resulting products were cloned into pGEM-T Easy vector (Promega, Madison, WI, USA). These were then subcloned into either pIRES2-ZsGreen1 (Clontech, Mountain View, CA, USA) or pcDNA 3.1^+ (Life Technologies Corporation, Carlsbad, CA, USA) for expression in mammalian cells.
(§2) Human embryonic kidney (HEK)-293 cells stably expressing a modified cyclic nucleotide-gated (CNG) channel (HEK293/CNG) (previously available through BD Biosciences, Mississauga, ON, Canada) were used to functionally characterize the receptors. […]
(§3) Bioluminescence assay using CHO/G16 cells was performed as described previously. […] Cells were loaded in each well using an automated injector and the luminescence recorded over 20 seconds using a Wallac Victor2 plate reader (Perkin Elmer, San Diego, CA, USA). […] Dose-response curves were obtained and the EC50 values determined using Prism5 software.

Rhopr-CT/DH-R2-B = experiment: Bioluminescence (calcium mobilization) assay, HEK293/CNG cells expressing Rhopr-CT/DH-R2-B; format: cell-based, R. prolixus; conditions: luminescence
Excerpt: as §1, §2, §3

Rhopr-CT/DH-R1-B = experiment: Bioluminescence (calcium mobilization) assay, HEK293/CNG cells expressing Rhopr-CT/DH-R1-B; format: cell-based, R. prolixus; conditions: luminescence
Excerpt: as §1, §2, §3

| Molecule | rate of fluid secretion by MTs (Malpighian tubules) | receptor activation (Rhopr-CT/DH-R1-C) | receptor activation (Rhopr-CT/DH-R2-B) | receptor activation (Rhopr-CT/DH-R1-B) |
| --- | --- | --- | --- | --- |
| NCCc1c[nH]c2ccc(O)cc12 [serotonin] | maximum rate | – | – | – |
| MQRPQGPSLSVANPIEVLRSRLLLEIARRRMKEQDASRVSKNRQYLQQI-NH2 [Rhopr-CRF/DH, R. prolixus corticotropin releasing-factor (CRF)-related diuretic hormone, custom synthesised by GenScript at > 95% purity] | maximum rate | None of these receptors were activated | None of these receptors were activated | None of these receptors were activated |
| NSELINSLLSLPKNMNDA-NH2 [Drome-PDF, D. melanogaster pigment dispersing factor, custom synthesized by GeneMed Synthesis at > 95% purity] | – | None of these receptors were activated | None of these receptors were activated | None of these receptors were activated |
